Reference: patent publication US4442044A, “Process for preparing monoesters and diesters of N-alkyl substituted amino methyl phosphonic acid” (priority 1983, dated 1984)

Assays:
Assay in all cases: post-emergent herbicidal activity, greenhouse
Format in all cases: in vivo
Rice = settings: Table II
In short: (§1)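 Post-emergence foliar spray at tabulated application rates, using aliquots of a 1.0% stock in acetone, THF or water plus ~0.4% emulsifier, applied to 2–3-week-old greenhouse plants. Plant injury was rated relative to controls roughly two and four weeks after treatment.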

Lambsquarters = test system: Lambsquarters
In short: as §1

Smartweed = test system: Smartweed
In short: as §1

Soybean = settings: Table II
In short: as §1

Johnsongrass = settings: Table I, 4 WAT
In short: as §1

Panicum Spp = settings: Table II
In short: as §1

Velvetleaf = test system: Velvetleaf
In short: as §1

Sorghum = settings: Table II
In short: as §1

Wild Buckwheat = settings: Table II
In short: as §1

Morningglory = test system: Morningglory
In short: as §1

Canada Thistle = settings: Table I, 4 WAT
In short: as §1

Wheat = settings: Table II
In short: as §1

Downy Brome = test system: Downy Brome
In short: as §1

Cocklebur = test system: Cocklebur
In short: as §1

Yellow Nutsedge = settings: Table I, 4 WAT
In short: as §1

Barnyardgrass = test system: Barnyardgrass
In short: as §1

Quackgrass = settings: Table I, 4 WAT
In short: as §1

Hemp Sesbania = settings: Table II
In short: as §1

Crabgrass = settings: Table II
In short: as §1

Sugar Beet = settings: Table II
In short: as §1

CC(C#N)OP(=O)(CNCC#N)OC(C)C#N (stereo not drawn) [Example 12, phosphonic acid, [[(cyanomethyl)amino]-methyl],bis 1-cyanoethyl ester]
post-emergent herbicidal activity index (Rice; 2 WAT, 0.28 kg/h): 0 (0-24% control) | post-emergent herbicidal activity index (Rice; 4 WAT, 1.12 kg/h): 0 (0-24% control) | post-emergent herbicidal activity index (Rice; 4 WAT, 5.6 kg/h): 2 (50-74% control) | post-emergent herbicidal activity index (Lambsquarters; Table I, 4 WAT, 5.6 kg/h): 3 (75-99% control) | post-emergent herbicidal activity index (Lambsquarters; Table I, 4 WAT, 11.2 kg/h): 2 (50-74% control) | post-emergent herbicidal activity index (Lambsquarters; Table II, 2 WAT, 0.28 kg/h): 1 (25-49% control) | post-emergent herbicidal activity index (Lambsquarters; Table II, 4 WAT, 1.12 kg/h): 2 (50-74% control) | post-emergent herbicidal activity index (Lambsquarters; Table II, 4 WAT, 5.6 kg/h): 4 (100% control) | post-emergent herbicidal activity index (Smartweed; Table I, 4 WAT, 5.6 kg/h): 4 (100% control) | post-emergent herbicidal activity index (Smartweed; Table I, 4 WAT, 11.2 kg/h): 4 (100% control) | post-emergent herbicidal activity index (Smartweed; Table II, 2 WAT, 0.28 kg/h): 0 (0-24% control) | post-emergent herbicidal activity index (Smartweed; Table II, 4 WAT, 1.12 kg/h): 0 (0-24% control) | post-emergent herbicidal activity index (Smartweed; Table II, 4 WAT, 5.6 kg/h): 2 (50-74% control) | post-emergent herbicidal activity index (Soybean; 2 WAT, 0.28 kg/h): 0 (0-24% control) | post-emergent herbicidal activity index (Soybean; 4 WAT, 1.12 kg/h): 1 (25-49% control) | post-emergent herbicidal activity index (Soybean; 4 WAT, 5.6 kg/h): 1 (25-49% control) | post-emergent herbicidal activity index (Johnsongrass; 5.6 kg/h): 4 (100% control) | post-emergent herbicidal activity index (Johnsongrass; 11.2 kg/h): 3 (75-99% control) | post-emergent herbicidal activity index (Panicum Spp; 2 WAT, 0.28 kg/h): 0 (0-24% control) | post-emergent herbicidal activity index (Panicum Spp; 4 WAT, 1.12 kg/h): 0 (0-24% control) | post-emergent herbicidal activity index (Panicum Spp; 4 WAT, 5.6 kg/h): 1 (25-49% control) | post-emergent herbicidal activity index (Velvetleaf; Table I, 4 WAT, 5.6 kg/h): 2 (50-74% control) | post-emergent herbicidal activity index (Velvetleaf; Table I, 4 WAT, 11.2 kg/h): 2 (50-74% control) | post-emergent herbicidal activity index (Velvetleaf; Table II, 2 WAT, 0.28 kg/h): 0 (0-24% control) | post-emergent herbicidal activity index (Velvetleaf; Table II, 4 WAT, 1.12 kg/h): 1 (25-49% control) | post-emergent herbicidal activity index (Velvetleaf; Table II, 4 WAT, 5.6 kg/h): 2 (50-74% control) | post-emergent herbicidal activity index (Sorghum; 2 WAT, 0.28 kg/h): 1 (25-49% control) | post-emergent herbicidal activity index (Sorghum; 4 WAT, 1.12 kg/h): 3 (75-99% control) | post-emergent herbicidal activity index (Sorghum; 4 WAT, 5.6 kg/h): 4 (100% control) | post-emergent herbicidal activity index (Wild Buckwheat; 2 WAT, 0.28 kg/h): 0 (0-24% control) | post-emergent herbicidal activity index (Wild Buckwheat; 4 WAT, 1.12 kg/h): 1 (25-49% control) | post-emergent herbicidal activity index (Wild Buckwheat; 4 WAT, 5.6 kg/h): 0 (0-24% control) | post-emergent herbicidal activity index (Morningglory; Table I, 4 WAT, 5.6 kg/h): 2 (50-74% control) | post-emergent herbicidal activity index (Morningglory; Table I, 4 WAT, 11.2 kg/h): 2 (50-74% control) | post-emergent herbicidal activity index (Morningglory; Table II, 2 WAT, 0.28 kg/h): 0 (0-24% control) | post-emergent herbicidal activity index (Morningglory; Table II, 4 WAT, 1.12 kg/h): 1 (25-49% control) | post-emergent herbicidal activity index (Canada Thistle; 5.6 kg/h): 2 (50-74% control) | post-emergent herbicidal activity index (Canada Thistle; 11.2 kg/h): 2 (50-74% control) | post-emergent herbicidal activity index (Wheat; 2 WAT, 0.28 kg/h): 0 (0-24% control) | post-emergent herbicidal activity index (Wheat; 4 WAT, 1.12 kg/h): 0 (0-24% control) | post-emergent herbicidal activity index (Wheat; 4 WAT, 5.6 kg/h): 2 (50-74% control) | post-emergent herbicidal activity index (Downy Brome; Table I, 4 WAT, 5.6 kg/h): 2 (50-74% control) | post-emergent herbicidal activity index (Downy Brome; Table I, 4 WAT, 11.2 kg/h): 1 (25-49% control) | post-emergent herbicidal activity index (Downy Brome; Table II, 2 WAT, 0.28 kg/h): 0 (0-24% control) | post-emergent herbicidal activity index (Downy Brome; Table II, 4 WAT, 1.12 kg/h): 0 (0-24% control) | post-emergent herbicidal activity index (Downy Brome; Table II, 4 WAT, 5.6 kg/h): 3 (75-99% control) | post-emergent herbicidal activity index (Cocklebur; Table I, 4 WAT, 5.6 kg/h): 2 (50-74% control) | post-emergent herbicidal activity index (Cocklebur; Table I, 4 WAT, 11.2 kg/h): 2 (50-74% control) | post-emergent herbicidal activity index (Cocklebur; Table II, 2 WAT, 0.28 kg/h): 0 (0-24% control) | post-emergent herbicidal activity index (Cocklebur; Table II, 4 WAT, 1.12 kg/h): 1 (25-49% control) | post-emergent herbicidal activity index (Cocklebur; Table II, 4 WAT, 5.6 kg/h): 3 (75-99% control) | post-emergent herbicidal activity index (Yellow Nutsedge; 5.6 kg/h): 3 (75-99% control) | post-emergent herbicidal activity index (Yellow Nutsedge; 11.2 kg/h): 3 (75-99% control) | post-emergent herbicidal activity index (Barnyardgrass; Table I, 4 WAT, 5.6 kg/h): 2 (50-74% control) | post-emergent herbicidal activity index (Barnyardgrass; Table I, 4 WAT, 11.2 kg/h): 3 (75-99% control) | post-emergent herbicidal activity index (Barnyardgrass; Table II, 2 WAT, 0.28 kg/h): 0 (0-24% control) | post-emergent herbicidal activity index (Barnyardgrass; Table II, 4 WAT, 1.12 kg/h): 1 (25-49% control) | post-emergent herbicidal activity index (Barnyardgrass; Table II, 4 WAT, 5.6 kg/h): 3 (75-99% control) | post-emergent herbicidal activity index (Quackgrass; 5.6 kg/h): 1 (25-49% control) | post-emergent herbicidal activity index (Quackgrass; 11.2 kg/h): 2 (50-74% control) | post-emergent herbicidal activity index (Hemp Sesbania; 2 WAT, 0.28 kg/h): 0 (0-24% control) | post-emergent herbicidal activity index (Hemp Sesbania; 4 WAT, 1.12 kg/h): 0 (0-24% control) | post-emergent herbicidal activity index (Hemp Sesbania; 4 WAT, 5.6 kg/h): 0 (0-24% control) | post-emergent herbicidal activity index (Crabgrass; 2 WAT, 0.28 kg/h): 0 (0-24% control) | post-emergent herbicidal activity index (Crabgrass; 4 WAT, 1.12 kg/h): 2 (50-74% control) | post-emergent herbicidal activity index (Crabgrass; 4 WAT, 5.6 kg/h): 2 (50-74% control) | post-emergent herbicidal activity index (Sugar Beet; 2 WAT, 0.28 kg/h): 0 (0-24% control) | post-emergent herbicidal activity index (Sugar Beet; 4 WAT, 1.12 kg/h): 0 (0-24% control) | post-emergent herbicidal activity index (Sugar Beet; 4 WAT, 5.6 kg/h): 1 (25-49% control)
